Results: ChEMBL document CHEMBL1142343, “Design and structure-activity relationships of potent and selective inhibitors of undecaprenyl pyrophosphate synthase (UPPS): tetramic, tetronic acids and dihydropyridin-2-ones” (Bioorg Med Chem Lett, 2008)
≈ marks a conversion by molar mass, not a printed value.

Experiments:
Streptococcus pneumoniae = test: Antibacterial activity against Streptococcus pneumoniae by microdilution broth method; format: functional
Enterococcus faecalis = test: Antibacterial activity against Enterococcus faecalis by microdilution broth method; format: functional
Staphylococcus aureus = test: Antibacterial activity against Staphylococcus aureus by microdilution broth method; format: functional
Isoprenyl transferase = biological target: T1, Isoprenyl transferase (Streptococcus pneumoniae serotype 4 (strain ATCC BAA-334 / TIGR4), UniProt Q97SR4); test: Inhibition of Streptococcus pneumoniae UPPS
T1 sequence (Q97SR4 whole entry): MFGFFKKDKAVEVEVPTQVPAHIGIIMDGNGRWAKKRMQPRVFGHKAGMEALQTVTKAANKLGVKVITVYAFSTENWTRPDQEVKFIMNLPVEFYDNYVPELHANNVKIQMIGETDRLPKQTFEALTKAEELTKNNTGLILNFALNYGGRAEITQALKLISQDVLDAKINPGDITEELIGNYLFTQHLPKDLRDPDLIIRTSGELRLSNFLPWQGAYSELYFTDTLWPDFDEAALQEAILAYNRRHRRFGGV

[1] = biological target: T2, Farnesyl pyrophosphate synthase (Homo sapiens, UniProt P14324); test: Inhibition of human FPPS
T2 sequence (P14324 whole entry): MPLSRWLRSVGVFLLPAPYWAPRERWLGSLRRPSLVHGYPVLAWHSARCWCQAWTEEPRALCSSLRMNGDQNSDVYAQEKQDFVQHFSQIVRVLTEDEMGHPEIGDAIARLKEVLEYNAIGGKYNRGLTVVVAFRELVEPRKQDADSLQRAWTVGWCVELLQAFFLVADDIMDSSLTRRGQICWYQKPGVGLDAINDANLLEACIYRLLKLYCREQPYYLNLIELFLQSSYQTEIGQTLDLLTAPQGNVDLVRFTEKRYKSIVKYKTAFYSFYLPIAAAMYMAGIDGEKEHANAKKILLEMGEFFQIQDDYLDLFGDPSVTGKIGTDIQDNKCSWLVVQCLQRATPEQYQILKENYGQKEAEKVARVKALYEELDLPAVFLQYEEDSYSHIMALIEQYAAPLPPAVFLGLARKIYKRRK

[2] = Dissociation constant, pKa of the compound; format: physicochemical

O=C(Nc1ccc(C2CCCCC2)cc1)C1=C(O)C(Cc2ccccc2)OC1=O (centres undefined)
MIC (Streptococcus pneumoniae): 1 µg/mL (≈ 2.55 µM)
MIC (Enterococcus faecalis): 32 µg/mL (≈ 81.7 µM)
MIC (Staphylococcus aureus): 64 µg/mL (≈ 163 µM)
IC50 (Isoprenyl transferase): 500 nM
IC50 [1]: > 50000 nM

O=C(Nc1ccc(S(=O)(=O)c2ccccc2)cc1)C1=C(O)CC(Cc2ccccc2)NC1=O (centres undefined)
pKa [2]: 6.5
MIC (Streptococcus pneumoniae): 16 µg/mL (≈ 34.6 µM)
MIC (Enterococcus faecalis): 16 µg/mL (≈ 34.6 µM)
MIC (Staphylococcus aureus): 32 µg/mL (≈ 69.2 µM)
IC50 (Isoprenyl transferase): 8500 nM

O=C(Nc1ccc(Cl)cc1)C1=C(O)C(c2ccccc2)OC1=O (centres undefined)
MIC (Streptococcus pneumoniae): 64 µg/mL (≈ 194 µM)
MIC (Enterococcus faecalis): > 64 µg/mL
MIC (Staphylococcus aureus): > 64 µg/mL
IC50 (Isoprenyl transferase): 24000 nM
IC50 [1]: > 50000 nM

O=C(Nc1ccc(Oc2ccccc2)cc1)C1=C(O)CC(Cc2ccccc2)NC1=O (centres undefined)
pKa [2]: 6.5
MIC (Streptococcus pneumoniae): 32 µg/mL (≈ 77.2 µM)
MIC (Enterococcus faecalis): 64 µg/mL (≈ 154 µM)
MIC (Staphylococcus aureus): 16 µg/mL (≈ 38.6 µM)
IC50 (Isoprenyl transferase): 110 nM
IC50 [1]: > 50000 nM

O=C(Nc1ccc(Nc2ccccc2)cc1)C1=C(O)CC(Cc2ccccc2)NC1=O (centres undefined)
pKa [2]: 6.5
IC50 (Isoprenyl transferase): 1100 nM

O=C(Nc1ccc(N2CCCCC2)cc1)C1=C(O)C(CCc2ccccc2)NC1=O (centres undefined)
pKa [2]: 3
MIC (Streptococcus pneumoniae): 4 µg/mL (≈ 9.86 µM)
MIC (Enterococcus faecalis): 8 µg/mL (≈ 19.7 µM)
MIC (Staphylococcus aureus): 4 µg/mL (≈ 9.86 µM)
IC50 (Isoprenyl transferase): 800 nM
IC50 [1]: > 50000 nM

O=C1NCC(CC2CCCCC2)C(O)=C1C(=O)Nc1ccc(-n2ccnc2)cc1 (centres undefined)
MIC (Streptococcus pneumoniae): 16 µg/mL (≈ 40.6 µM)
MIC (Enterococcus faecalis): 4 µg/mL (≈ 10.1 µM)
MIC (Staphylococcus aureus): 16 µg/mL (≈ 40.6 µM)
IC50 (Isoprenyl transferase): 2100 nM

COCC1NC(=O)C(C(=O)Nc2ccc(C3CCCCC3)cc2)=C1O (centres undefined)
pKa [2]: 3
IC50 (Isoprenyl transferase): > 50000 nM

O=C(Nc1ccc(-c2ccccc2)cc1)C1=C(O)C(CCc2ccccc2)NC1=O (centres undefined)
pKa [2]: 3
MIC (Streptococcus pneumoniae): 2 µg/mL (≈ 5.02 µM)
MIC (Enterococcus faecalis): 16 µg/mL (≈ 40.2 µM)
MIC (Staphylococcus aureus): 4 µg/mL (≈ 10 µM)
IC50 (Isoprenyl transferase): 120 nM
IC50 [1]: > 100000 nM

O=C(Nc1ccc(C2CCCCC2)cc1)C1=C(O)CN(Cc2ccccc2)C1=O
pKa [2]: 3
MIC (Enterococcus faecalis): 1 µg/mL (≈ 2.56 µM)
MIC (Staphylococcus aureus): 0.5 µg/mL (≈ 1.28 µM)
IC50 (Isoprenyl transferase): 300 nM
IC50 [1]: 8000 nM

O=C(Nc1ccc(F)cc1)C1=C(O)C(CCc2ccccc2)NC1=O (centres undefined)
pKa [2]: 3
MIC (Streptococcus pneumoniae): 16 µg/mL (≈ 47 µM)
MIC (Enterococcus faecalis): 64 µg/mL (≈ 188 µM)
MIC (Staphylococcus aureus): 16 µg/mL (≈ 47 µM)
IC50 (Isoprenyl transferase): 2500 nM

O=C1NCC(Cc2ccccc2)C(O)=C1C(=O)Nc1ccc(-n2ccnc2)cc1 (centres undefined)
MIC (Streptococcus pneumoniae): 32 µg/mL (≈ 82.4 µM)
MIC (Enterococcus faecalis): 4 µg/mL (≈ 10.3 µM)
MIC (Staphylococcus aureus): 64 µg/mL (≈ 165 µM)
IC50 (Isoprenyl transferase): 8800 nM

O=C(Nc1ccc(C2CCCCC2)cc1)C1=C(O)CC(c2ccccc2)NC1=O (centres undefined)
pKa [2]: 6.5
MIC (Streptococcus pneumoniae): 4 µg/mL (≈ 10.2 µM)
MIC (Enterococcus faecalis): 8 µg/mL (≈ 20.5 µM)
MIC (Staphylococcus aureus): 4 µg/mL (≈ 10.2 µM)
IC50 (Isoprenyl transferase): 200 nM
IC50 [1]: > 50000 nM

O=C(Nc1ccc(-c2ccccc2)cc1)C1=C(O)C(Cc2ccccc2)OC1=O (centres undefined)
MIC (Streptococcus pneumoniae): 4 µg/mL (≈ 10.4 µM)
MIC (Enterococcus faecalis): 32 µg/mL (≈ 83 µM)
MIC (Staphylococcus aureus): > 128 µg/mL
IC50 (Isoprenyl transferase): 1100 nM

O=C(NC1CCCCC1)C1=C(O)CC(Cc2ccccc2)NC1=O (centres undefined)
pKa [2]: 6.5
MIC (Streptococcus pneumoniae): 64 µg/mL (≈ 195 µM)
MIC (Enterococcus faecalis): 64 µg/mL (≈ 195 µM)
MIC (Staphylococcus aureus): 64 µg/mL (≈ 195 µM)
IC50 (Isoprenyl transferase): 70 nM
IC50 [1]: > 50000 nM

O=C(Nc1ccc(C2CCCCC2)cc1)C1=C(O)C[C@H](c2ccccc2)NC1=O
pKa [2]: 6.5
MIC (Streptococcus pneumoniae): 4 µg/mL (≈ 10.2 µM)
MIC (Enterococcus faecalis): 64 µg/mL (≈ 164 µM)
MIC (Staphylococcus aureus): 4 µg/mL (≈ 10.2 µM)
IC50 (Isoprenyl transferase): 180 nM
IC50 [1]: > 50000 nM

O=C(Nc1ccc(C2CCCCC2)cc1)C1=C(O)C[C@@H](c2ccccc2)NC1=O
pKa [2]: 6.5
MIC (Streptococcus pneumoniae): 4 µg/mL (≈ 10.2 µM)
MIC (Enterococcus faecalis): 64 µg/mL (≈ 164 µM)
MIC (Staphylococcus aureus): 4 µg/mL (≈ 10.2 µM)
IC50 (Isoprenyl transferase): 70 nM
IC50 [1]: > 100000 nM

O=C(Nc1ccc(C2CCCCC2)cc1)C1=C(O)C(CCc2ccccc2)NC1=O (centres undefined)
pKa [2]: 3
MIC (Streptococcus pneumoniae): 1 µg/mL (≈ 2.47 µM)
MIC (Enterococcus faecalis): 4 µg/mL (≈ 9.89 µM)
MIC (Staphylococcus aureus): 4 µg/mL (≈ 9.89 µM)
IC50 (Isoprenyl transferase): 160 nM
IC50 [1]: > 100000 nM

CC(C)CC1NC(=O)C(C(=O)Nc2ccc(C3CCCCC3)cc2)=C1O (centres undefined)
pKa [2]: 3
MIC (Streptococcus pneumoniae): 1 µg/mL (≈ 2.81 µM)
MIC (Enterococcus faecalis): 2 µg/mL (≈ 5.61 µM)
MIC (Staphylococcus aureus): 0.5 µg/mL (≈ 1.4 µM)
IC50 (Isoprenyl transferase): 1300 nM
IC50 [1]: > 50000 nM

O=C1NCC(O)=C1C(=O)Nc1ccc(C2CCCCC2)cc1
pKa [2]: 3
IC50 (Isoprenyl transferase): 58000 nM

O=C(Nc1ccc(C2CCCCC2)cc1)C1=C(O)C(c2ccccc2)NC1=O (centres undefined)
pKa [2]: 3
MIC (Streptococcus pneumoniae): 2 µg/mL (≈ 5.31 µM)
MIC (Enterococcus faecalis): 4 µg/mL (≈ 10.6 µM)
MIC (Staphylococcus aureus): 2 µg/mL (≈ 5.31 µM)
IC50 (Isoprenyl transferase): 3500 nM
IC50 [1]: > 100000 nM

O=C(Nc1ccc(C2CCCCC2)cc1)C1=C(O)CC(Cc2ccccc2)NC1=O (centres undefined)
pKa [2]: 6.5
MIC (Streptococcus pneumoniae): 8 µg/mL (≈ 19.8 µM)
MIC (Enterococcus faecalis): 64 µg/mL (≈ 158 µM)
MIC (Staphylococcus aureus): 32 µg/mL (≈ 79.1 µM)
IC50 (Isoprenyl transferase): 40 nM
IC50 [1]: > 50000 nM

O=C(Nc1ccc(-n2ccnc2)cc1)C1=C(O)CC(Cc2ccccc2)NC1=O (centres undefined)
pKa [2]: 6.5
MIC (Streptococcus pneumoniae): 32 µg/mL (≈ 82.4 µM)
MIC (Enterococcus faecalis): 32 µg/mL (≈ 82.4 µM)
MIC (Staphylococcus aureus): 32 µg/mL (≈ 82.4 µM)
IC50 (Isoprenyl transferase): 630 nM

CCCCCCOc1ccc(NC(=O)C2=C(O)C(Cc3ccccc3)NC2=O)cc1 (centres undefined)
pKa [2]: 3
IC50 (Isoprenyl transferase): 19000 nM

O=C(Nc1ccc(C(F)(F)F)nc1)C1=C(O)CC(Cc2ccccc2)NC1=O (centres undefined)
pKa [2]: 6.5
MIC (Streptococcus pneumoniae): 8 µg/mL (≈ 20.4 µM)
MIC (Enterococcus faecalis): 16 µg/mL (≈ 40.9 µM)
MIC (Staphylococcus aureus): 16 µg/mL (≈ 40.9 µM)
IC50 (Isoprenyl transferase): 140 nM
IC50 [1]: > 50000 nM

O=C(Nc1ccc(N2CCCCC2)cc1)C1=C(O)CC(Cc2ccccc2)NC1=O (centres undefined)
pKa [2]: 6.5
MIC (Streptococcus pneumoniae): 64 µg/mL (≈ 158 µM)
MIC (Enterococcus faecalis): 64 µg/mL (≈ 158 µM)
MIC (Staphylococcus aureus): 64 µg/mL (≈ 158 µM)
IC50 (Isoprenyl transferase): 110 nM
IC50 [1]: > 50000 nM

O=C(NC1CCCCC1)C1=C(O)C(CCc2ccccc2)NC1=O (centres undefined)
pKa [2]: 3
MIC (Streptococcus pneumoniae): 64 µg/mL (≈ 195 µM)
MIC (Enterococcus faecalis): 32 µg/mL (≈ 97.4 µM)
MIC (Staphylococcus aureus): 32 µg/mL (≈ 97.4 µM)
IC50 (Isoprenyl transferase): 35000 nM

O=C(Nc1ccc(C2CCCCC2)cc1)C1=C(O)C(Cc2ccccc2)NC1=O (centres undefined)
pKa [2]: 3
MIC (Streptococcus pneumoniae): 1 µg/mL (≈ 2.56 µM)
MIC (Enterococcus faecalis): 8 µg/mL (≈ 20.5 µM)
MIC (Staphylococcus aureus): 0.5 µg/mL (≈ 1.28 µM)
IC50 (Isoprenyl transferase): 1800 nM
IC50 [1]: > 100000 nM

CC(C)CC1CC(O)=C(C(=O)Nc2ccc(C3CCCCC3)cc2)C(=O)N1 (centres undefined)
pKa [2]: 6.5
MIC (Streptococcus pneumoniae): 4 µg/mL (≈ 10.8 µM)
MIC (Enterococcus faecalis): 64 µg/mL (≈ 173 µM)
MIC (Staphylococcus aureus): > 64 µg/mL
IC50 (Isoprenyl transferase): 200 nM

O=C(Nc1ccc(C2CCCCC2)cc1)C1=C(O)CC(C2CCCCC2)NC1=O (centres undefined)
pKa [2]: 6.5
MIC (Streptococcus pneumoniae): > 32 µg/mL
MIC (Enterococcus faecalis): 32 µg/mL (≈ 80.7 µM)
MIC (Staphylococcus aureus): > 32 µg/mL
IC50 (Isoprenyl transferase): 60 nM

O=C(Nc1cc(Cl)cc(Cl)c1)C1=C(O)C(c2ccccc2)OC1=O (centres undefined)
MIC (Streptococcus pneumoniae): 4 µg/mL (≈ 11 µM)
MIC (Enterococcus faecalis): 32 µg/mL (≈ 87.9 µM)
MIC (Staphylococcus aureus): 32 µg/mL (≈ 87.9 µM)
IC50 (Isoprenyl transferase): 2000 nM
IC50 [1]: > 50000 nM

O=C(Nc1ccc(C2CCCCC2)cc1)C1=C(O)C(Cc2ncc[nH]2)NC1=O (centres undefined)
pKa [2]: 3
MIC (Streptococcus pneumoniae): 8 µg/mL (≈ 21 µM)
MIC (Enterococcus faecalis): 16 µg/mL (≈ 42.1 µM)
MIC (Staphylococcus aureus): 16 µg/mL (≈ 42.1 µM)
IC50 (Isoprenyl transferase): 4200 nM
